pIC50: −log10 of the molar value.
Columns and labels:
NMDA [1] = assay: Inhibition of NMDA-induced lethality in mice; type: in vivo, male Swiss-albino mice (CD-1 strain); conditions: for ED50 Inhibition of NMDA-Induced Lethality / Percent of animals which survived at the dose indicated / Efficacy Ratio (ED50/TD50): ip, mice; for ED50 Inhibition of NMDA-Induced Lethality: dose required to produce 50% survival rate, NMDA 195 mg/kg i.p. 30 min after compound; for Percent of animals which survived at the dose indicated: NMDA 195 mg/kg i.p.; for Efficacy Ratio (ED50/TD50): NMDA-induced lethality vs traction reflex deficit (ataxia)
Procedure: The mice were pretreated with the representative test compounds followed thirty minutes later with NMDA (195 mg/kg, i.p., the ED90 dose for generalized myoclonus). The mice were then observed for 30 minutes, noting the latency of onset of generalized myoclonus (uncontrollable hind leg scratching or limbs and/or torso muscle jerking with loss of […] reflex) and death. From the latter, the ED50 for survival is determined. In this standard experimental test procedure, the specific compounds tested and their activity, which representatively establish the activity for all the compounds herein, are presented in Table I as follows:
(§1) NMDA-Induced Lethality and Traction Reflex Deficit (Ataxia)
Of Lethality Reflex Deficit
*As measured in mice. Defined as the dose required to produce 50% surviva
#Percent of animals which survived at the dose indicated.

[2] = target: NMDA-associated ion channel; assay: Displacement of [3H]-TCP from its binding site in rat frontal cortex homogenates; conditions: functional binding assay without added spermidine
From the text: Ability to Displace [^3 H]-TCP from the NMDA Ion Channel
*Functional binding assay without added spermidine.

NMDA-induced responses = conditions: cited from earlier work
[3] = cited from earlier work
[4] = Traction reflex deficit (ataxia) in mice; conditions: mouse, in vivo, ip, dose which produced the deficit in 50% of animals tested
From the text: In fact, the separation between a compound's NMDA-antagonist activity and ataxic activity (often expressed as an "efficacy ratio" of the ED50 's of these two activities) has been extensively used to evaluate its therapeutic usefulness versus its liabilities. In our studies, PCP is approximately equipotent in its abilities to antagonize NMDA-induced lethality in mice and cause ataxia as measured by the traction reflex deficit model, giving an efficacy ratio (ED50 /TD50) of approximately 1.4 (Table 1, infra).
as §1
^@ As measured in mice. Defined as the dose which produced the defici
in 50% of animals tested.

cerebral ischemia = conditions: in vivo; cited from earlier work
NMDA [5] = conditions: in words; cited from earlier work
[6] = tested on: high-affinity PCP binding site in the NMDA-associated ion channel; conditions: cited from earlier work
[7] = in vivo; cited from earlier work

Row | SMILES | ED50 Inhibition of NMDA-Induced Lethality (NMDA [1]) [mg/kg] | pIC50 [2] | Percent of animals which survived at the dose indicated (NMDA [1]; 5 mg/kg) [%] | Efficacy Ratio (ED50/TD50) (NMDA [1]) | further results
1 | CC12CNC(Cc3ccc(Br)cc31)c1ccccc12 (single isomer, unassigned; (+)) [Example 6, (+)-10,11-Dihydro-3-bromo-5-methyl-10,5-(iminomethano)-5H -dibenzo[a,d]cycloheptene] | 2.2 | 7.05 | – | – | –
2 | CC12CNC(Cc3ccc(Br)cc31)c1ccccc12 (single isomer, unassigned; (-)) [Example 5, (-)-10,11-Dihydro-3-bromo-5-methyl-10,5-(iminomethano)-5H -dibenzo[a,d]cycloheptene] | – | 6.00 | 40 | – | –
3 | COc1ccc2c(c1)[C@]13CCCC[C@@H]1[C@H](C2)N(C)CC3 [Dextromethorphan] | 21 | 6.13 | – | 2.1 | Potency in antagonizing NMDA-induced lethality vs PCP and MK-801 (NMDA [1]; in words): not as potent as PCP and MK-801; Antagonism of NMDA-induced responses (NMDA-induced responses): noncompetitively antagonizes NMDA-induced responses; Metabolism in man [3]: metabolized to dextrorphan in man
4 | CN1CC[C@@]23CCCC[C@@H]2[C@@H]1Cc1ccc(O)cc13 [Dextrorphan, dextrorphan] | 13 | – | – | – | –
5 | CC12CNC(Cc3ccc(Br)cc31)c1ccccc12 (stereo not shown) [Example 1, 10.11-Dihydro-3-bromo-5-methyl-10,5-(iminomethano)-5H -dibenzo[a,d]cycloheptene] | 4.6 | 6.72 | – | 3.2 | TD50 [4]: 14.7 mg/kg
6 | CC12CNC(Cc3ccccc31)c1ccc(Br)cc12 (stereo not shown) [Example 2, 10,11-Dihydro-7-bromo-5-methyl-10,5-(iminomethano)-5H-dibenzo[a,d]cycloheptene] | – | 6.96 | – | – | Percent of animals which survived at the dose indicated (NMDA [1]; 20 mg/kg): 60%
7 | CC12CNC(Cc3ccc(Cl)cc31)c1ccccc12 (stereo not shown) [Example 3, 10,11-Dihydro-3-chloro-5-methyl-10,5-(iminomethano)-5H-dibenzo[a,d]cycloheptene] | – | – | 90 | – | –
8 | CC12CNC(Cc3ccc(F)cc31)c1ccccc12 (stereo not shown) [Example 4, 10,11-Dihydro-3-fluoro-5-methyl-10,5-(iminomethano)-5H -dibenzo[a,d]cycloheptene] | – | – | 90 | – | –
9 | C[C@]12N[C@H](Cc3ccccc31)c1ccccc12 [MK-801] | 0.19 | 8.59 | – | 0.9 | Protection against cell death in cerebral ischemia models (cerebral ischemia): protects against cell death in cerebral ischemia models; Antagonism of NMDA-induced lethality (background statement) (NMDA [5]): antagonizes NMDA-induced lethality; Competition for the high-affinity PCP binding site [6]: competes for the high-affinity PCP binding site; Drug discrimination: generalization for PCP [7]: generalizes for PCP
10 | c1ccc(C2(N3CCCCC3)CCCCC2)cc1 [PCP, phencyclidine] | 1.9 | 7.55 | – | – | Protection against cell death in cerebral ischemia models (cerebral ischemia): protects against cell death in cerebral ischemia models; Antagonism of NMDA-induced lethality (background statement) (NMDA [5]): antagonizes NMDA-induced lethality; Antagonism of NMDA-induced responses (NMDA-induced responses): noncompetitively antagonize NMDA-induced responses

Reference: patent publication US5508401A, “Substituted dibenzo[a,d]cycloheptene NMDA antagonists” (priority 1991, dated 1996)
